Results on 21 compounds are retold here after patent US11999746B2, “Compounds” (GlaxoSmithKline Intellectual Property Development Limited, priority 2014, dated 2024).

Each structure is given as a SMILES string. Where a name gives a salt, the structure may show the parent alone.

What all share (assay type): biochemical
In test [1] the target is T1, recombinant human Lp-PLA2 (Homo sapiens, UniProt Q13093).
T1 sequence (Q13093 22-441): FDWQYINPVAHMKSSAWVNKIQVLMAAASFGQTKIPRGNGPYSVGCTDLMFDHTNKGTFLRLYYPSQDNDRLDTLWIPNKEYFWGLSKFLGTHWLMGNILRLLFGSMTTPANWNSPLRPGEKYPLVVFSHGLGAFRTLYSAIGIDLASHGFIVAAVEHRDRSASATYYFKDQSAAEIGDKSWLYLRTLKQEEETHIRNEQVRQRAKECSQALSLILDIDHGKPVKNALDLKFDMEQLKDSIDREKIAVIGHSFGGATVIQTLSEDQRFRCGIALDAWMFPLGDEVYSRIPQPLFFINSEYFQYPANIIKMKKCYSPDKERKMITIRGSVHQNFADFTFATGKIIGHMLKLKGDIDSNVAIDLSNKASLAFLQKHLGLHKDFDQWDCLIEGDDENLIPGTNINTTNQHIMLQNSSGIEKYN
Description: (1b) hrThioPAF assay, recombinant human Lp-PLA2. The conditions noted are these: Examples 266-412 were tested here, one experiment or average of multiple experiments, read-out: rhLp-PLA2 (pIC50) (converted). The text has this:
1-O-Hexadecyl-2-deoxy-2-thio-S-acetyl-sn-glyceryl-3-phosphorylcholine (2-thio-PAF) is a substrate for PAF-hydrolases (PAF-AH) commercially available from Cayman Chemical. Upon cleavage with PAF-AH, the free thiol is released at the sn-2 position and can then react with 7-diethylamino-3-(4′-maleimidylphenyl)-4-methylcoumarin (CPM) a thiol-reactive coumarin. This reaction (Michael addition) results in an increase in fluorescence. Inhibitors of Lp-PLA2 therefore prevent this cleavage and no fluorescent increase is observed.
The Thio-PAF assay was run as an unquenched 20 μL assay. The source plate containing the compounds to be tested was prepared by making 1:3 (by volume) serial dilution of the compounds within DMSO on 384-well microplate. Then, 5 μL of the compounds on compound source plate were transferred into 384 well Greiner 784076 (black) plates using STAR+(Hamilton) liquid dispenser. 10 μL of recombinant human Lp-PLA2 enzyme (20 pM rhLp-PLA2 in assay buffer of 50 mM HEPES, pH 7.4, 150 mM NaCl, 1 mM CHAPS) was added to each well of the plate. 5 μL of substrate comprising 40 μM 2-thio-PAF [from ethanol stock], 40 μM CPM [from a DMSO stock] and 400 μM NEM (N-ethylmaleimide) [made fresh daily in DMSO] in assay buffer (50 mM HEPES, pH 7.4, 150 mM NaCl, 1 mM CHAPS) was added to 384 well Greiner 784076 black plates. Plates were vortexed for 10 sec. The plate was covered to protect it from light and incubated for 20 min at 25° C. The plates were read for fluorescence intensity at ex: 380 nm/em: 485 nm using Envision plate reader (Perkin Elmer). Raw data were transferred to Excel software and pIC50 data, curve and QC analysis was conducted by using XL fit module in Excel.

A further test concerns the target T2, Lp-PLA2 in human plasma (Homo sapiens, UniProt Q13093).
T2 construct: from tissue; host or cells: pooled human plasma
T2 sequence (Q13093 22-441): T1 sequence (Q13093 22-441)
Description: (3a) Lp-PLA2 human plasma Thio-PAF assay. The conditions noted are these: (3a) Thio-PAF assay, pooled human plasma; Examples 1-265 and 413-430 were tested here; read-out: pIC50 in the Lp-PLA2 human plasma assay (converted). A digest of the protocol: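 Pooled human plasma preincubated 30 min with serially diluted compound, then given 2-thio-PAF substrate with CPM and NEM in 50 mM HEPES pH 7.4, 150 mM NaCl, 1 mM CHAPS. Reaction quenched with TFA after 2 min; CPM thiol-adduct fluorescence read at ex 380/em 485 after 40 min; pIC50 reported.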

The target of test [2] is T1, recombinant human Lp-PLA2. Description: (1a) PED6 assay, recombinant human Lp-PLA2 (rhLp-PLA2). The following applies: Examples 1-167 and 413-430 were tested here, one experiment or average of multiple experiments, read-out: rhLp-PLA2 (pIC50) (converted). The essentials: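 PED6 (2 μM final after 1:1 addition of 4 μM stock) cleavage by rhLp-PLA2 (4 nM working solution) in 50 mM HEPES pH 7.4, 150 mM NaCl, 1 mM CHAPS; compounds preincubated with enzyme 30 minutes, reaction 20 min at room temperature. Fluorescence at ex 480/em 540; pIC50 from curve fit.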

For `N#Cc1cc(CNc2cc3n(c(=O)n2)CC2CNCCN32)ccc1F` (stereo not drawn) [Example E319, 2-Fluoro-5-(((9-oxo-2,3,4,9,11,11a-hexahydro-1H-pyrazino[1′,2′:3,4]imidazo[1,2-c]pyrimidin-7-yl)amino)methyl)benzonitrile hydrochloride], the IC50 in test [1] is no more than 10000 nM.

For the compound `N#Cc1cc(CNc2cc3n(c(=O)n2)CC2CNC(=O)CN32)ccc1F` (stereo not drawn) [Example E354, 5-(((3,9-dioxo-2,3,4,9,11,11a-hexahydro-1H-pyrazino[1′,2′:3,4]imidazo[1,2-c]pyrimidin-7-yl)amino)methyl)-2-fluorobenzonitrile, trifluoroacetic acid salt], the IC50 in test [1] is no more than 10000 nM.

On to `O=c1nc(OCc2cccc(F)c2F)cc2n1CC1CSCCN21` (stereo not drawn) [Example E361, 7-((2,3-Difluorobenzyl)oxy)-3,4,11,11a-tetrahydropyrimido[6′,1′:2,3]imidazo[5,1-c][1,4] thiazin-9(1H)-one], for which the IC50 in test [1] was no more than 10000 nM.

With `O=C(O)C(C1CC1)N1CCN2c3cc(OCc4ccc(F)c(F)c4)nc(=O)n3CC2C1` (stereo not drawn) [Example E328, 2-Cyclopropyl-2-(7-((3,4-difluorobenzyl)oxy)-9-oxo-3,4,11,11a-tetrahydro-1H-pyrazino[1′,2′:3,4]imidazo[1,2-c]pyrimidin-2(9H)-yl)acetic acid, trifluoroacetic acid Salt], in test [1], the IC50 is no more than 10000 nM.

Regarding `CC(=O)N1CCN2c3cc(NCc4ccc(F)c(C#N)c4)nc(=O)n3CC2C1` (stereo not drawn) [Example E314, 5-(((2-Acetyl-9-oxo-2,3,4,9,11,11a-hexahydro-1H-pyrazino[1′,2′:3,4]imidazo[1,2-c]pyrimidin-7-yl)amino)methyl)-2-fluorobenzonitrile], the IC50 in test [1] was no more than 10000 nM.

For the compound `O=C1CN2c3cc(NCc4ccc(F)c(F)c4)nc(=O)n3CC2CN1` (stereo not drawn) [Example E353, 7-((3,4-Difluorobenzyl)amino)-11,11a-dihydro-1H-pyrazino[1′,2′:3,4]imidazo[1,2-c]pyrimidine-3,9(2H,4H)-dione], in test [1], the IC50 was no more than 10000 nM.

On to `Cc1ncc(Oc2c(F)cc(COc3cc4n(c(=O)n3)C[C@H]3COCN43)cc2F)cn1` [Example E152, (S)-6-((3,5-difluoro-4-((2-methylpyrimidin-5-yl)oxy)benzyl)oxy)-10,10a-dihydro-1H-oxazolo[3′,4′:3,4]imidazo[1,2-c]pyrimidin-8(3H)-one], for which the IC50 (on Lp-PLA2 in human plasma; in test [2]) was no more than 100 nM in each case.

With `O=c1nc(OCc2ccc(F)cc2)cc2n1C[C@@H]1CCCCN21` [Example E34, (S)-3-((4-Fluorobenzyl)oxy)-6,7,8,9,9a,10-hexahydro-1H-pyrido[1′,2′:3,4]imidazo-[1,2-c] pyrimidin-1-one], the IC50 on Lp-PLA2 in human plasma is no more than 10000 nM; in test [2], no more than 100 nM.

For the compound `O=c1nc(OCc2cc(F)c(F)c(F)c2)cc2n1C[C@@H]1COCCN21` [Example E123, (R)-7-((3,4,5-trifluorobenzyl)oxy)-3,4,11,11atetrahydropyrimido[6′,1′:2,3]imidazo[5,1-c][1,4] oxazin-9(1H)-one], the IC50 was no more than 10000 nM on Lp-PLA2 in human plasma and no more than 100 nM in test [2].

`O=c1nc(OCc2cc(F)c(OC3CCC(F)(F)C3)c(F)c2)cc2n1CC1CCCN21` (stereo not drawn) [Example E94, 3-((4-((3,3-difluorocyclopentyl)oxy)-3,5-difluorobenzyl)oxy)-7,8,8a,9-tetrahydropyrrolo[1′,2′:3,4]imidazo[1,2-c]pyrimidin-1(6H)-one]: the IC50 was no more than 10000 nM at Lp-PLA2 in human plasma and no more than 100 nM in test [2].

As to `O=c1nc(OCc2ccc(F)cc2F)cc2n1C[C@H]1COCCN21` [Example E126, (S)-7-((2,4-difluorobenzyl)oxy)-3,4,11,11a-tetrahydropyrimido[6′,1′:2,3]imidazo[5,1-c][1,4] oxazin-9(1H)-one], the IC50 on Lp-PLA2 in human plasma was no more than 10000 nM; in test [2], no more than 100 nM.

Consider `O=c1nc(OCc2ccc(Oc3ccc(C(F)(F)F)nc3)c(F)c2)cc2n1CC1CCCCN21` (stereo not drawn) [Example E22, 3-((3-Fluoro-4-((6-(trifluoromethyl)pyridin-3-yl)oxy)benzyl)oxy)-6,7,8,9,9a,10-hexahydro-1H-pyrido[1′,2′:3,4]imidazo[1,2-c]pyrimidin-1-one], for which the IC50 at Lp-PLA2 in human plasma is no more than 10000 nM; in test [2] it was no more than 1 nM.

For the compound `O=c1nc(OCc2cc(F)c(F)cc2F)cc2n1C[C@@H]1CCCCN21` [Example E59, (S)-3-((2,4,5-Trifluorobenzyl)oxy)-6,7,8,9,9a,10-hexahydro-1H-pyrido[1′,2′:3,4]imidazo[1,2-c]pyrimidin-1-one], the IC50 at Lp-PLA2 in human plasma was no more than 10000 nM; in test [2], no more than 100 nM.

Turning to `O=c1nc(OCc2cccc(F)c2)cc2n1C[C@@H]1CCCCN21` [Example E60, (S)-3-((3-Fluorobenzyl)oxy)-6,7,8,9,9a,10-hexahydro-1H-pyrido[1′,2′:3,4]imidazo[1,2-c] pyrimidin-1-one], the IC50 on Lp-PLA2 in human plasma was no more than 10000 nM; in test [2] it was no more than 100 nM.

On to `CN1c2cc(OCc3cccc(F)c3F)nc(=O)n2CC12CCC2` [Example 420, 7′4(2,3-difluorobenzyhoxy)-1-methyl-1H-spiro[cyclobutane-1,2′-imidazo[1,2-c]pyrimidin]-5′(3′H)-one], for which the IC50 is no more than 10000 nM on Lp-PLA2 in human plasma and no more than 100 nM in test [2].

On to `O=c1nc(OCc2cc(F)c(Oc3ccnc(C(F)(F)F)c3)c(F)c2)cc2n1C[C@H]1CCOCN21` [Example E135, (R)-3-((3,5-difluoro-4-((2-(trifluoromethyl)pyridin-4-yl)oxy)benzyl)oxy)-8,9,9a,10-tetrahydropyrimido[6′,1′:2,3]imidazo[1,5-c][1,3]oxazin-1(6H)-one], for which the figures for the IC50 (on Lp-PLA2 in human plasma; in test [2]) were no more than 100 nM and no more than 1 nM, respectively.

As for `Cn1cc(Oc2c(F)cc(COc3cc4n(c(=O)n3)C[C@@H]3COCCN43)cc2F)cn1` [Example E120, (R)-7-((3,5-difluoro-4-((1-methyl-1H-pyrazol-4-yl)oxy)benzyl)oxy)-3,4,11,11a-tetrahydropyrimido[6′,1′:2,3]imidazo[5,1-c][1,4]oxazin-9(1H)-one], the figures for the IC50 (on Lp-PLA2 in human plasma; in test [2]) were no more than 10000 nM and no more than 100 nM, respectively.

As to `O=c1nc(OCc2ccc(F)cc2F)cc2n1C[C@H]1CCCCN21` [Example E55, (R)-3-((2,4-Difluorobenzyl)oxy)-6,7,8,9,9a,10-hexahydro-1H-pyrido[1′,2′:3,4]imidazo[1,2-c] pyrimidin-1-one], the IC50 on Lp-PLA2 in human plasma was no more than 10000 nM; in test [2], no more than 100 nM.

Regarding `O=c1nc(OCc2cc(F)c(Oc3ccc(C(F)(F)F)nc3)c(F)c2)cc2n1CC1CCCCN21` (stereo not drawn) [Example E25, 3-((3,5-Difluoro-4-((6-(trifluoromethyl)pyridin-3-yl)oxy)benzyl)oxy)-6,7,8,9,9a,10-hexahydro-1H-pyrido[1′,2′:3,4]imidazo[1,2-c]pyrimidin-1-one], the IC50 on Lp-PLA2 in human plasma was no more than 100 nM; in test [2], no more than 1 nM.

Turning to `O=c1nc(OCc2cc(F)c(F)c(F)c2)cc2n1C[C@H]1COCCN21` [Example E116, (S)-7-((3,4,5-trifluorobenzyl)oxy)-3,4,11,11atetrahydropyrimido[6′,1′:2,3]imidazo[5,1-c][1,4] oxazin-9(1H)-one], the IC50 (at Lp-PLA2 in human plasma; in test [2]) was no more than 100 nM in each case.

Consider `Cc1ccc(Oc2c(F)cc(COc3cc4n(c(=O)n3)C[C@@H]3COCN43)cc2F)cn1` [Example E157, (R)-6-((3,5-difluoro-4-((6-methylpyridin-3-yl)oxy)benzyl)oxy)-10,10a-dihydro-1H-oxazolo[3′,4′:3,4]imidazo[1,2-c]pyrimidin-8(3H)-one], for which the IC50 on Lp-PLA2 in human plasma is no more than 10000 nM; in test [2] it was no more than 100 nM.
